The source of these data is patent US20240287070A1, “FUSED HETEROCYCLIC DERIVATIVES” (Janssen Sciences Ireland Unlimited Company, priority 2021, published 2024).

Series [1] deals with HepG2 or HepG2.117 cells. Briefly: Cytotoxicity, ATPlite Luminescence Assay. It is filed as cell-based, human. Conditions: 3-days incubation unless marked with *. Summed up:
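Viability after compound treatment is read as ATP luminescence. Exposure lasts 3 or 4 days.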

The subject of series [2] is HBV (HepG2.117 cell line, inducibly HBV producing). Description: Anti-HBV activity, intracellular HBV DNA by real-time PCR in HepG2.117 cell line. Conditions: HepG2.117 cells, 3 days of treatment. It is filed as cell-based, hepatitis B virus. Summed up: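 Read-out is intracellular HBV DNA, measured by real-time PCR using HBV-specific primers and probe. Cells were stable, inducible HBV-producing HepG2.117 (Tet-off). Serially diluted compound was applied for 3 days after replication was induced.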

A short description of series [3]: Human liver microsome stability. It counts as in vitro ADME. The settings on record: pooled human liver microsomes 0.5 mg/mL, 1 μM compound, NADPH 1 mM, 37° C., 0-60 min. Summed up:
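Single incubations with human liver microsomes started with 1 mM NADPH; samples taken at 0, 5, 10, 20, 40 and 60 min, quenched in acetonitrile (1:3). Cassette LC-MS analysis with internal standard; t½ derived from slope of ln peak-area ratio versus time (k = −gradient).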

As for `CC(c1ccc(=O)n(C)n1)N1C[C@@H](C)n2nc3c(c2C1=O)CN(C(=O)c1ccc(Cl)c(Cl)c1)[C@H](C)C3` (single isomer, unassigned) [Compound 55B, (3R,7R)-2-(3,4-dichlorobenzoyl)-3,7-dimethyl-9-((S*)-1-(1-methyl-6-oxo-1,6-dihydropyridazin-3-yl)ethyl)-1,2,3,4,8,9-hexahydropyrido[4′,3′:3,4]pyrazolo[1,5-a]pyrazin-10(7H)-one], the CC50 in series [1] is more than 50 µM. The response in series [2] was half-maximal at 0.06 µM (EC50). Further, the “HLM Metabolism t1/2” value in series [3] is more than 3 h.
Take `CC(c1cn(C2CC2)c(=O)cn1)N1C[C@@H](C)n2nc3c(c2C1=O)CN(C(=O)c1ccc(Cl)c(Cl)c1)[C@H](C)C3` (single isomer, unassigned) [Compound 56B, (3R,7R)-9-((S*)-1-(4-cyclopropyl-5-oxo-4,5-dihydropyrazin-2-yl)ethyl)-2-(3,4-dichlorobenzoyl)-3,7-dimethyl-1,2,3,4,8,9-hexahydropyrido[4′,3′:3,4]pyrazolo[1,5-a]pyrazin-10(7H)-one]: the CC50 in series [1] is more than 50 µM. The same compound showed an EC50 in series [2] of 0.084 µM. Also, in series [3], the “HLM Metabolism t1/2” value came to 1.53 h.
Consider `CC(c1ccc(C(C)(C)O)nc1)N1C[C@@H](C)n2nc3c(c2C1=O)CN(C(=O)c1cc(Cl)c(Cl)cn1)[C@H](C)C3` (single isomer, unassigned) [Compound 57B, (3R,7R)-2-(4,5-dichloropicolinoyl)-9-((S*)-1-(6-(2-hydroxypropan-2-yl)pyridin-3-yl)ethyl)-3,7-dimethyl-1,2,3,4,8,9-hexahydropyrido[4′,3′:3,4]pyrazolo[1,5-a]pyrazin-10(7H)-one], for which the CC50 in series [1] was more than 50 µM. Moreover, the EC50 in series [2] worked out at 0.65 µM. Also, in series [3], the “HLM Metabolism t1/2” value is 1.68 h.
Taken in the same sequence, the figures for `CC(c1ccc(C(C)(C)O)nc1)N1C[C@@H](C)n2nc3c(c2C1=O)CN(C(=O)c1cc(C(F)(F)F)c(Cl)cn1)[C@H](C)C3` (single isomer, unassigned) [Compound 58B, (3R,7R)-2-(5-chloro-4-(trifluoromethyl)picolinoyl)-9-((S*)-1-(6-(2-hydroxypropan-2-yl)pyridin-3-yl)ethyl)-3,7-dimethyl-1,2,3,4,8,9-hexahydropyrido[4′,3′:3,4]pyrazolo[1,5-a]pyrazin-10(7H)-one] were more than 50 µM, 0.19 µM and more than 3 h.
On the same counts, the results for `CC(c1ccc(C(C)(C)O)nc1)N1C[C@@H](C)n2nc3c(c2C1=O)CN(C(=O)c1ccc(Cl)c(F)c1)[C@H](C)C3` (single isomer, unassigned) [Compound 59B, (3R,7R)-2-(4-chloro-3-fluorobenzoyl)-9-((S*)-1-(6-(2-hydroxypropan-2-yl)pyridin-3-yl)ethyl)-3,7-dimethyl-1,2,3,4,8,9-hexahydropyrido[4′,3′:3,4]pyrazolo[1,5-a]pyrazin-10(7H)-one] are more than 50 µM, 0.055 µM and more than 3 h.
On the same counts, the results for `CC(c1ccc(C(C)(C)O)nc1)N1C[C@@H](C)n2nc3c(c2C1=O)CN(C(=O)c1cc(F)c(Cl)c(F)c1)[C@H](C)C3` (single isomer, unassigned) [Compound 60B, (3R,7R)-2-(4-chloro-3,5-difluorobenzoyl)-9-((S*)-1-(6-(2-hydroxypropan-2-yl)pyridin-3-yl)ethyl)-3,7-dimethyl-1,2,3,4,8,9-hexahydropyrido[4′,3′:3,4]pyrazolo[1,5-a]pyrazin-10(7H)-one] are more than 50 µM, 0.052 µM and more than 3 h.
In turn, `CC(c1ccc(C(C)(C)O)nc1)N1C[C@@H](C)n2nc3c(c2C1=O)CN(C(=O)c1ccc(Cl)c(F)c1F)[C@H](C)C3` (single isomer, unassigned) [Compound 61B, (3R,7R)-2-(4-chloro-2,3-difluorobenzoyl)-9-((S*)-1-(6-(2-hydroxypropan-2-yl)pyridin-3-yl)ethyl)-3,7-dimethyl-1,2,3,4,8,9-hexahydropyrido[4′,3′:3,4]pyrazolo[1,5-a]pyrazin-10(7H)-one] returned a CC50 in series [1] of more than 50 µM. Besides, the EC50 in series [2] was found to be 0.3 µM. The “HLM Metabolism t1/2” value in series [3] amounted to 2.25 h.
`CC(c1ccc(C(C)(C)O)nc1)N1C[C@@H](C)n2nc3c(c2C1=O)CN(C(=O)c1ccc(Cl)c(C(F)(F)F)n1)[C@H](C)C3` (single isomer, unassigned) [Compound 62B, (3R,7R)-2-(5-chloro-6-(trifluoromethyl)picolinoyl)-9-((S*)-1-(6-(2-hydroxypropan-2-yl)pyridin-3-yl)ethyl)-3,7-dimethyl-1,2,3,4,8,9-hexahydropyrido[4′,3′:3,4]pyrazolo[1,5-a]pyrazin-10(7H)-one]: the CC50 in series [1] is more than 50 µM. The EC50 in series [2] is 0.068 µM. The “HLM Metabolism t1/2” value in series [3] stood at 2.07 h.
In turn, `CC(c1ccc(C(C)(C)O)nc1)N1C[C@@H](C)n2nc3c(c2C1=O)CN(C(=O)c1ccc(Cl)c(C#N)c1)[C@H](C)C3` (single isomer, unassigned) [Compound 63B, 2-chloro-5-((3R,7R)-9-((S*)-1-(6-(2-hydroxypropan-2-yl)pyridin-3-yl)ethyl)-3,7-dimethyl-10-oxo-1,2,3,4,7,8,9,10-octahydropyrido[4′,3′:3,4]pyrazolo[1,5-a]pyrazine-2-carbonyl)benzonitrile] came in with a CC50 in series [1] of more than 50 µM. For the same compound, the EC50 in series [2] is 0.052 µM. The “HLM Metabolism t1/2” value in series [3] was more than 3 h.
On the same counts, the results for `CC(c1ccn(CC(C)(C)O)c(=O)c1)N1C[C@@H](C)n2nc3c(c2C1=O)CN(C(=O)c1ccc(Cl)c(C(F)(F)F)c1)[C@H](C)C3` (single isomer, unassigned) [Compound 64B, (3R,7R)-2-(4-chloro-3-(trifluoromethyl)benzoyl)-9-((S*)-1-(1-(2-hydroxy-2-methylpropyl)-2-oxo-1,2-dihydropyridin-4-yl)ethyl)-3,7-dimethyl-1,2,3,4,8,9-hexahydropyrido[4′,3′:3,4]pyrazolo[1,5-a]pyrazin-10(7H)-one] are more than 50 µM, 0.085 µM and more than 3 h.
In series [1], `CC(c1ccccn1)N1C[C@@H](C)n2nc3c(c2C1=O)CN(C(=O)c1ccc(Cl)c(Cl)c1)[C@H](C)C3` (single isomer, unassigned) [Compound 65B, (3R,7R)-2-(3,4-dichlorobenzoyl)-3,7-dimethyl-9-((S*)-1-(pyridin-2-yl)ethyl)-1,2,3,4,8,9-hexahydropyrido[4′,3′:3,4]pyrazolo[1,5-a]pyrazin-10(7H)-one] registered a CC50 of more than 50 µM. This compound yielded an EC50 in series [2] of 0.046 µM. Also, the “HLM Metabolism t1/2” value in series [3] turned out to be 2.02 h.
Taken in the same sequence, the figures for `CC(c1ccc(C#N)cc1)N1C[C@@H](C)n2nc3c(c2C1=O)CN(C(=O)c1ccc(Cl)c(Cl)c1)[C@H](C)C3` (single isomer, unassigned) [Compound 66B, 4-((S*)-1-((3R,7R)-2-(3,4-dichlorobenzoyl)-3,7-dimethyl-10-oxo-1,3,4,7,8,10-hexahydropyrido[4′,3′:3,4]pyrazolo[1,5-a]pyrazin-9(2H)-yl)ethyl)benzonitrile] were 19.1 µM, 0.017 µM and more than 3 h.
